PMC6100082, “Pyridine-Ureas as Potential Anticancer Agents: Synthesis and In Vitro Biological Evaluation” (Molecules : A Journal of Synthetic Chemistry and Natural …, 2018)
Like-named read-outs stand apart in the source and are kept apart here.

Tests used:
HCT-15 = assay: NCI one-dose SRB assay (Colon Cancer); type: cell-based, human
Procedure, shortened: (§1)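 At a fixed 10^−5 M, each compound is incubated with the cell line for 48 h before protein content is stained with sulforhodamine B to gauge viability and growth; results are presented as GI%.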

HT29 = assay: NCI one-dose SRB assay (Colon Cancer); type: cell-based, human
Procedure, shortened: as §1

HCC-2998 = assay: NCI one-dose SRB assay (Colon Cancer); type: cell-based, human
Procedure, shortened: as §1

HCT-116 = assay: NCI one-dose SRB assay (Colon Cancer); type: cell-based, human
Procedure, shortened: as §1

SK-MEL-5 = assay: NCI one-dose SRB assay (Melanoma); type: cell-based, human
Procedure, shortened: as §1

SK-MEL-2 = assay: NCI one-dose SRB assay (Melanoma); type: cell-based, human
Procedure, shortened: as §1

UACC-62 = assay: NCI one-dose SRB assay (Melanoma); type: cell-based, human
Procedure, shortened: as §1

MDA-MB-435 = assay: NCI one-dose SRB assay (Melanoma); type: cell-based, human
Procedure, shortened: as §1

M14 = assay: NCI one-dose SRB assay (Melanoma); type: cell-based, human
Procedure, shortened: as §1

SNB-75 = assay: NCI one-dose SRB assay (CNS Cancer); type: cell-based, human
Procedure, shortened: as §1

SNB-19 = assay: NCI one-dose SRB assay (CNS Cancer); type: cell-based, human
Procedure, shortened: as §1

U251 = assay: NCI one-dose SRB assay (CNS Cancer); type: cell-based, human
Procedure, shortened: as §1

SF-268 = assay: NCI one-dose SRB assay (CNS Cancer); type: cell-based, human
Procedure, shortened: as §1

SF-539 = assay: NCI one-dose SRB assay (CNS Cancer); type: cell-based, human
Procedure, shortened: as §1

SF-295 = assay: NCI one-dose SRB assay (CNS Cancer); type: cell-based, human
Procedure, shortened: as §1

[1] = test system: breast cancer MCF-7 cell line; assay: In vitro anti-proliferative activity, MTT assay; type: cell-based, human; settings: Homo sapiens, MCF-7, MTT
Procedure, shortened: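 Cells were grown in DMEM with 10% heat-inactivated FBS, 10 μg/mL insulin and 1% penicillin-streptomycin. Anti-proliferative activity was measured by MTT colorimetric read-out, in triplicate. Values are the mean of at least three separate experiments.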

MCF7 = assay: NCI one-dose SRB assay (Breast Cancer); type: cell-based, human
Procedure, shortened: as §1

MDA-MB-468 = assay: NCI one-dose SRB assay (Breast Cancer); type: cell-based, human
Procedure, shortened: as §1

MDA-MB-231 = assay: NCI one-dose SRB assay (Breast Cancer); type: cell-based, human
Procedure, shortened: as §1

BT-549 = assay: NCI one-dose SRB assay (Breast Cancer); type: cell-based, human
Procedure, shortened: as §1

HS 578T = assay: NCI one-dose SRB assay (Breast Cancer); type: cell-based, human
Procedure, shortened: as §1

T-47D = assay: NCI one-dose SRB assay (Breast Cancer); type: cell-based, human
Procedure, shortened: as §1

In the case of `COc1ccc(NC(=O)Nc2ccc(-c3ccc(OC)c(OC)c3)nc2C)cc1` [Compound 8n, 1-(6-(3,4-Dimethoxyphenyl)-2-methylpyridin-3-yl)-3-(4-methoxyphenyl) Urea], the “Growth Percent” value (HCT-15; HCT-15, 1.00E-5 Molar) is reported as 91.77%, the inhibition at 10 µM (HCT-15; Homo sapiens, HCT-15, 10 μM, read-out: Percentage growth inhibition (GI%)) is reported as under 10% and the “Growth Percent” value (HT29; HT29, 1.00E-5 Molar) is reported as 68.76%. The inhibition at 10 µM (HT29; Homo sapiens, HT-29, HT29, 10 μM, read-out: Percentage growth inhibition (GI%)) was 32%, the “Growth Percent” value (HCC-2998; HCC-2998, 1.00E-5 Molar) was 83.10% and the inhibition at 10 µM (HCC-2998; Homo sapiens, HCC-2998, 10 μM, read-out: Percentage growth inhibition (GI%)) was 17%. The “Growth Percent” value (HCT-116; HCT-116, 1.00E-5 Molar) was 49.40%, the inhibition at 10 µM (HCT-116; Homo sapiens, HCT-116, 10 μM, read-out: Percentage growth inhibition (GI%)) was 51% and the melting point was 253 to 254 °C. For the same molecule, the inhibition at 10 µM (SK-MEL-5; Homo sapiens, SK-MEL-5, 10 μM, read-out: Percentage growth inhibition (GI%)) was 78%, the “Growth Percent” value (SK-MEL-5; SK-MEL-5, 1.00E-5 Molar) was 22.98% and the inhibition at 10 µM (SK-MEL-2; Homo sapiens, SK-MEL-2, 10 μM, read-out: Percentage growth inhibition (GI%)) was 21%. For the same molecule, the “Growth Percent” value (SK-MEL-2; SK-MEL-2, 1.00E-5 Molar) was 79.55%, the inhibition at 10 µM (UACC-62; Homo sapiens, UACC-62, 10 μM, read-out: Percentage growth inhibition (GI%)) was 41% and the “Growth Percent” value (UACC-62; UACC-62, 1.00E-5 Molar) was 59.87%. The inhibition at 10 µM (MDA-MB-435; Homo sapiens, MDA-MB-435, 10 μM, read-out: Percentage growth inhibition (GI%)) was 35%, the “Growth Percent” value (MDA-MB-435; MDA-MB-435, 1.00E-5 Molar) was 65.17% and the inhibition at 10 µM (M14; Homo sapiens, M14, 10 μM, read-out: Percentage growth inhibition (GI%)) was 28%. The “Growth Percent” value (M14; M14, 1.00E-5 Molar) was 72.14%, the inhibition at 10 µM (SNB-75; Homo sapiens, SNB-75, 10 μM, read-out: Percentage growth inhibition (GI%)) was 53% and the “Growth Percent” value (SNB-75; SNB-75, 1.00E-5 Molar) was 47.52%. For the same molecule, the inhibition at 10 µM (SNB-19; Homo sapiens, SNB-19, 10 μM, read-out: Percentage growth inhibition (GI%)) was 29%, the “Growth Percent” value (SNB-19; SNB-19, 1.00E-5 Molar) was 71.47% and the inhibition at 10 µM (U251; Homo sapiens, U-251, U251, 10 μM, read-out: Percentage growth inhibition (GI%)) was 78%. For the same molecule, the “Growth Percent” value (U251; U251, 1.00E-5 Molar) was 22.08%, the inhibition at 10 µM (SF-268; Homo sapiens, SF-268, 10 μM, read-out: Percentage growth inhibition (GI%)) was 41% and the “Growth Percent” value (SF-268; SF-268, 1.00E-5 Molar) was 59.25%. For the same molecule, the inhibition at 10 µM (SF-539; Homo sapiens, SF-539, 10 μM, read-out: Percentage growth inhibition (GI%)) was 30%, the “Growth Percent” value (SF-539; SF-539, 1.00E-5 Molar) was 70.63% and the inhibition at 10 µM (SF-295; Homo sapiens, SF-295, 10 μM, read-out: Percentage growth inhibition (GI%)) was under 10%. The “Growth Percent” value (SF-295; SF-295, 1.00E-5 Molar) was 101.75%, the IC50 ([1]; MCF7, 48 h, 48 h of incubation, read-out: IC50 48 h) was 1880 ± 120 nM and the IC50 ([1]; MCF7, 72 h, 72 h of incubation, read-out: IC50 72 h) was 800 ± 70 nM. For the same molecule, the inhibition at 10 µM (MCF7; Homo sapiens, MCF7, 10 μM, read-out: Percentage growth inhibition (GI%)) was 35%, the “Growth Percent” value (MCF7; MCF7, 1.00E-5 Molar) was 65.14% and the inhibition at 10 µM (MDA-MB-468; Homo sapiens, MDA-MB-468, 10 μM, read-out: Percentage growth inhibition (GI%)) was 17%. For the same molecule, the “Growth Percent” value (MDA-MB-468; MDA-MB-468, 1.00E-5 Molar) was 83.00%, the inhibition at 10 µM (MDA-MB-231; Homo sapiens, MDA-MB-231, 10 μM, read-out: Percentage growth inhibition (GI%)) was 60% and the “Growth Percent” value (MDA-MB-231; MDA-MB-231/ATCC, 1.00E-5 Molar) was 40.48%. For the same molecule, the “Growth Percent” value (BT-549; BT-549, 1.00E-5 Molar) was 50.44%, the inhibition at 10 µM (BT-549; Homo sapiens, BT-549, 10 μM, read-out: Percentage growth inhibition (GI%)) was 50% and the “Growth Percent” value (HS 578T; 1.00E-5 Molar) was 39.96%. The inhibition at 10 µM (HS 578T; Homo sapiens, 10 μM, read-out: Percentage growth inhibition (GI%)) was 61%, the “Growth Percent” value (T-47D; 1.00E-5 Molar) was 60.36% and the inhibition at 10 µM (T-47D; Homo sapiens, T47D, 10 μM, read-out: Percentage growth inhibition (GI%)) was 40%.
